Legend:
Experiment in all cases: relative viability (nuclei count vs DMSO), 5 days (fraction); higher = more cells survive
HOP-62 = tested on: HOP-62
In short: (§1)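 Each reported value is a median over duplicate plates. It expresses relative viability: treated-well nuclei count divided by vehicle-well nuclei count. Lung cancer cell lines in 1536-well plates were dosed by pin tool a day after seeding, alone with one drug or with a fixed anchor-drug dose plus five library-drug doses (not always all listed) in √10 steps, and nuclei were counted after 5 days.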

NCI-H1437 = tested on: NCI-H1437
In short: as §1

SW 1573 = tested on: SW 1573
In short: as §1

SK-LU-1 = tested on: SK-LU-1
In short: as §1

HCC-827 = tested on: HCC-827
In short: as §1

NCI-H1395 = tested on: NCI-H1395
In short: as §1

NCI-H2009 = tested on: NCI-H2009
In short: as §1

HCC-366 = tested on: HCC-366
In short: as §1

NCI-H522 = tested on: NCI-H522
In short: as §1

COR-L 105 = tested on: COR-L 105
In short: as §1

NCI-H2228 = tested on: NCI-H2228
In short: as §1

NCI-H1755 = tested on: NCI-H1755
In short: as §1

NCI-H727 = tested on: NCI-H727
In short: as §1

A-427 = tested on: A-427
In short: as §1

CAL-12T = tested on: CAL-12T
In short: as §1

NCI-H1792 = tested on: NCI-H1792
In short: as §1

EMC-BAC-2 = tested on: EMC-BAC-2
In short: as §1

NCI-H1915 = tested on: NCI-H1915
In short: as §1

HARA = tested on: HARA
In short: as §1

LCLC-103H = tested on: LCLC-103H
In short: as §1

NCI-H23 = tested on: NCI-H23
In short: as §1

NCI-H460 = tested on: NCI-H460
In short: as §1

## Nc1ccn([C@@H]2O[C@H](CO)[C@@H](O)[C@@H]2O)c(=O)n1 [Cytarabine] + Cc1nc(Nc2ncc(C(=O)Nc3c(C)cccc3Cl)s2)cc(N2CCN(CCO)CC2)n1 [Dasatinib] (partner 0.075 µM)
HOP-62; first compound 0.005 µM
  relative viability: 0.58
HOP-62; first compound 0.01581 µM
  relative viability: 0.531
HOP-62; first compound 0.05 µM
  relative viability: 0.421
HOP-62; first compound 0.1581 µM
  relative viability: 0.157
HOP-62; first compound 0.5 µM
  relative viability: 0.11
NCI-H1437; first compound 0.005 µM
  relative viability: 0.395
NCI-H1437; first compound 0.01581 µM
  relative viability: 0.26
NCI-H1437; first compound 0.05 µM
  relative viability: 0.228
NCI-H1437; first compound 0.1581 µM
  relative viability: 0.142
NCI-H1437; first compound 0.5 µM
  relative viability: 0.165
SW 1573; first compound 0.005 µM
  relative viability: 0.34
SW 1573; first compound 0.01581 µM
  relative viability: 0.333
SW 1573; first compound 0.05 µM
  relative viability: 0.381
SW 1573; first compound 0.1581 µM
  relative viability: 0.122
SW 1573; first compound 0.5 µM
  relative viability: 0.089
SK-LU-1; first compound 0.005 µM
  relative viability: 0.179
SK-LU-1; first compound 0.01581 µM
  relative viability: 0.157
SK-LU-1; first compound 0.05 µM
  relative viability: 0.17
SK-LU-1; first compound 0.5 µM
  relative viability: 0.147
HCC-827; first compound 0.005 µM
  relative viability: 0.445
HCC-827; first compound 0.01581 µM
  relative viability: 0.397
HCC-827; first compound 0.05 µM
  relative viability: 0.4
HCC-827; first compound 0.1581 µM
  relative viability: 0.226
HCC-827; first compound 0.5 µM
  relative viability: 0.227
NCI-H1395; first compound 0.005 µM
  relative viability: 0.385
NCI-H1395; first compound 0.01581 µM
  relative viability: 0.34
NCI-H1395; first compound 0.05 µM
  relative viability: 0.374
NCI-H1395; first compound 0.1581 µM
  relative viability: 0.319
NCI-H1395; first compound 0.5 µM
  relative viability: 0.282
NCI-H2009; first compound 0.005 µM
  relative viability: 0.304
NCI-H2009; first compound 0.01581 µM
  relative viability: 0.275
NCI-H2009; first compound 0.05 µM
  relative viability: 0.295
NCI-H2009; first compound 0.1581 µM
  relative viability: 0.192
NCI-H2009; first compound 0.5 µM
  relative viability: 0.146
HCC-366; first compound 0.005 µM
  relative viability: 0.573
HCC-366; first compound 0.01581 µM
  relative viability: 0.402
HCC-366; first compound 0.05 µM
  relative viability: 0.424
HCC-366; first compound 0.1581 µM
  relative viability: 0.148
HCC-366; first compound 0.5 µM
  relative viability: 0.0563
NCI-H522; first compound 0.005 µM
  relative viability: 0.935
NCI-H522; first compound 0.01581 µM
  relative viability: 0.802
NCI-H522; first compound 0.05 µM
  relative viability: 0.769
NCI-H522; first compound 0.1581 µM
  relative viability: 0.562
NCI-H522; first compound 0.5 µM
  relative viability: 0.55
COR-L 105; first compound 0.005 µM
  relative viability: 0.314
COR-L 105; first compound 0.01581 µM
  relative viability: 0.311
COR-L 105; first compound 0.05 µM
  relative viability: 0.293
COR-L 105; first compound 0.1581 µM
  relative viability: 0.196
COR-L 105; first compound 0.5 µM
  relative viability: 0.187
NCI-H2228; first compound 0.005 µM
  relative viability: 0.299
NCI-H2228; first compound 0.01581 µM
  relative viability: 0.158
NCI-H2228; first compound 0.05 µM
  relative viability: 0.159
NCI-H2228; first compound 0.1581 µM
  relative viability: 0.0724
NCI-H2228; first compound 0.5 µM
  relative viability: 0.0511
NCI-H1755; first compound 0.005 µM
  relative viability: 0.439
NCI-H1755; first compound 0.01581 µM
  relative viability: 0.316
NCI-H1755; first compound 0.05 µM
  relative viability: 0.372
NCI-H1755; first compound 0.1581 µM
  relative viability: 0.257
NCI-H1755; first compound 0.5 µM
  relative viability: 0.222
NCI-H727; first compound 0.005 µM
  relative viability: 0.319
NCI-H727; first compound 0.01581 µM
  relative viability: 0.303
NCI-H727; first compound 0.05 µM
  relative viability: 0.447
NCI-H727; first compound 0.1581 µM
  relative viability: 0.271
NCI-H727; first compound 0.5 µM
  relative viability: 0.294
A-427; first compound 0.005 µM
  relative viability: 0.591
A-427; first compound 0.01581 µM
  relative viability: 0.215
A-427; first compound 0.05 µM
  relative viability: 0.195
A-427; first compound 0.1581 µM
  relative viability: 0.141
A-427; first compound 0.5 µM
  relative viability: 0.135
CAL-12T; first compound 0.005 µM
  relative viability: 0.302
CAL-12T; first compound 0.01581 µM
  relative viability: 0.306
CAL-12T; first compound 0.05 µM
  relative viability: 0.447
CAL-12T; first compound 0.1581 µM
  relative viability: 0.284
CAL-12T; first compound 0.5 µM
  relative viability: 0.109
NCI-H1792; first compound 0.005 µM
  relative viability: 1.34
NCI-H1792; first compound 0.01581 µM
  relative viability: 0.657
NCI-H1792; first compound 0.05 µM
  relative viability: 0.603
NCI-H1792; first compound 0.1581 µM
  relative viability: 0.503
NCI-H1792; first compound 0.5 µM
  relative viability: 0.355
EMC-BAC-2; first compound 0.005 µM
  relative viability: 0.344
EMC-BAC-2; first compound 0.01581 µM
  relative viability: 0.278
EMC-BAC-2; first compound 0.05 µM
  relative viability: 0.203
EMC-BAC-2; first compound 0.1581 µM
  relative viability: 0.154
EMC-BAC-2; first compound 0.5 µM
  relative viability: 0.113
NCI-H1915; first compound 0.005 µM
  relative viability: 0.366
NCI-H1915; first compound 0.01581 µM
  relative viability: 0.29
NCI-H1915; first compound 0.05 µM
  relative viability: 0.273
NCI-H1915; first compound 0.1581 µM
  relative viability: 0.183
NCI-H1915; first compound 0.5 µM
  relative viability: 0.181
HARA; first compound 0.005 µM
  relative viability: 0.309
HARA; first compound 0.01581 µM
  relative viability: 0.222
HARA; first compound 0.05 µM
  relative viability: 0.227
HARA; first compound 0.1581 µM
  relative viability: 0.0854
HARA; first compound 0.5 µM
  relative viability: 0.0721
LCLC-103H; first compound 0.005 µM
  relative viability: 0.449
LCLC-103H; first compound 0.01581 µM
  relative viability: 0.507
LCLC-103H; first compound 0.05 µM
  relative viability: 0.486
LCLC-103H; first compound 0.1581 µM
  relative viability: 0.353
LCLC-103H; first compound 0.5 µM
  relative viability: 0.445
NCI-H23; first compound 0.005 µM
  relative viability: 0.864
NCI-H23; first compound 0.01581 µM
  relative viability: 0.541
NCI-H23; first compound 0.05 µM
  relative viability: 0.655
NCI-H23; first compound 0.1581 µM
  relative viability: 0.236
NCI-H23; first compound 0.5 µM
  relative viability: 0.187
NCI-H460; first compound 0.005 µM
  relative viability: 0.394
NCI-H460; first compound 0.01581 µM
  relative viability: 0.259
NCI-H460; first compound 0.05 µM
  relative viability: 0.105
NCI-H460; first compound 0.1581 µM
  relative viability: 0.0311
NCI-H460; first compound 0.5 µM
  relative viability: 0.0213
